Measurements published in PubChem BioAssay AID2060330 (Molecular Pharmacology Branch, DTP, NCI, 2025).

Tested on: LG0703-F948-PDC spheroids with HUVEC/MSC, viability
Experiment: Anticancer human tumor LG0703-F948-PDC patient-derived lung adenocarcinoma cell line growth inhibition [IpAb]
Conditions: for IC50: curve of first compound; for viability, T/C: stronger effect = lower value
In short: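 Combinations with ipatasertib or abemaciclib were tested on tumour spheroids holding HUVEC (25%) and MSC (15%) alongside 60% malignant cells. Top concentration was at or near clinical Cmax (10 microM if undefined), descending in half-log steps.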

[1] = second compound 0.01 µM, first compound 0.0316 µM
[2] = second compound 0.01 µM, first compound 0.1 µM
[3] = second compound 0.01 µM, first compound 0.316 µM
[4] = second compound 0.01 µM, first compound 1 µM
[5] = second compound 0.01 µM, first compound 3.16 µM
[6] = second compound 0.01 µM, first compound 10 µM
[7] = second compound 0.0316 µM, first compound 0.0316 µM
[8] = second compound 0.0316 µM, first compound 0.1 µM
[9] = second compound 0.0316 µM, first compound 0.316 µM
[10] = second compound 0.0316 µM, first compound 1 µM
[11] = second compound 0.0316 µM, first compound 3.16 µM
[12] = second compound 0.0316 µM, first compound 10 µM
[13] = second compound 0.1 µM, first compound 0.0316 µM
[14] = second compound 0.1 µM, first compound 0.1 µM
[15] = second compound 0.1 µM, first compound 0.316 µM
[16] = second compound 0.1 µM, first compound 1 µM
[17] = second compound 0.1 µM, first compound 3.16 µM
[18] = second compound 0.1 µM, first compound 10 µM
[19] = second compound 0.316 µM, first compound 0.0316 µM
[20] = second compound 0.316 µM, first compound 0.1 µM
[21] = second compound 0.316 µM, first compound 0.316 µM
[22] = second compound 0.316 µM, first compound 1 µM
[23] = second compound 0.316 µM, first compound 3.16 µM
[24] = second compound 0.316 µM, first compound 10 µM
[25] = second compound 1 µM, first compound 0.0316 µM
[26] = second compound 1 µM, first compound 0.1 µM
[27] = second compound 1 µM, first compound 0.316 µM
[28] = second compound 1 µM, first compound 1 µM
[29] = second compound 1 µM, first compound 3.16 µM
[30] = second compound 1 µM, first compound 10 µM
[31] = second compound 0.01 µM, first compound 0.00949 µM
[32] = second compound 0.01 µM, first compound 0.03 µM
[33] = second compound 0.01 µM, first compound 0.0949 µM
[34] = second compound 0.01 µM, first compound 0.3 µM
[35] = second compound 0.0316 µM, first compound 0.00949 µM
[36] = second compound 0.0316 µM, first compound 0.03 µM
[37] = second compound 0.0316 µM, first compound 0.0949 µM
[38] = second compound 0.0316 µM, first compound 0.3 µM
[39] = second compound 0.1 µM, first compound 0.00949 µM
[40] = second compound 0.1 µM, first compound 0.03 µM
[41] = second compound 0.1 µM, first compound 0.0949 µM
[42] = second compound 0.1 µM, first compound 0.3 µM
[43] = second compound 0.316 µM, first compound 0.00949 µM
[44] = second compound 0.316 µM, first compound 0.03 µM
[45] = second compound 0.316 µM, first compound 0.0949 µM
[46] = second compound 0.316 µM, first compound 0.3 µM
[47] = second compound 1 µM, first compound 0.00949 µM
[48] = second compound 1 µM, first compound 0.03 µM
[49] = second compound 1 µM, first compound 0.0949 µM
[50] = second compound 1 µM, first compound 0.3 µM
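Further: spheroids exposed to compounds for seven days before readout.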
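Wherever viability, T/C is given: T/C percent relative to DMSO vehicle wells set as 100% viability.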

Work on `C=CC(=O)N1CCN(c2nc(=O)n(-c3c(C)ccnc3C(C)C)c3nc(-c4c(O)cccc4F)c(F)cc23)C(C)C1` (stereo not given) + CCN1CCN(Cc2ccc(Nc3ncc(F)c(-c4cc(F)c5nc(C)n(C(C)C)c5c4)n3)nc2)CC1 yielded an IC50 (second compound 0.01 µM) greater than 10000 nM, an IC50 (second compound 0.0316 µM) greater than 10000 nM and an IC50 (second compound 0.1 µM) greater than 10000 nM. For the same compound, the IC50 (second compound 0.316 µM) was greater than 10000 nM, the IC50 (second compound 1 µM) was greater than 10000 nM and the viability, T/C [1] was 110%. The viability, T/C [2] was 110%, the viability, T/C [3] was 107% and the viability, T/C [4] was 121%. The viability, T/C [5] was 111%, the viability, T/C [6] was 79.5% and the viability, T/C [7] was 95.5%. The viability, T/C [8] was 92%, the viability, T/C [9] was 94.2% and the viability, T/C [10] was 104%. The viability, T/C [11] was 99.2%, the viability, T/C [12] was 75.9% and the viability, T/C [13] was 86.6%. It also gave a viability, T/C [14] of 95.5%, a viability, T/C [15] of 91.2% and a viability, T/C [16] of 94.5%. The viability, T/C [17] was 91.8%, the viability, T/C [18] was 73% and the viability, T/C [19] was 88.1%. For the same compound, the viability, T/C [20] was 85.6%, the viability, T/C [21] was 82.3% and the viability, T/C [22] was 97.7%. The viability, T/C [23] was 95.6%, the viability, T/C [24] was 79.6% and the viability, T/C [25] was 89.8%. It also gave a viability, T/C [26] of 82.9%, a viability, T/C [27] of 46.8% and a viability, T/C [28] of 96.6%. The viability, T/C [29] was 95.7% and the viability, T/C [30] was 73.1%.

In the case of `CC(=O)c1c(C)c2cnc(Nc3ccc(N4CCNCC4)cn3)nc2n(C2CCCC2)c1=O` + CCN1CCN(Cc2ccc(Nc3ncc(F)c(-c4cc(F)c5nc(C)n(C(C)C)c5c4)n3)nc2)CC1, the IC50 (second compound 0.01 µM) is reported as greater than 300 nM, the IC50 (second compound 0.0316 µM) is reported as greater than 300 nM and the IC50 (second compound 0.1 µM) is reported as greater than 300 nM. The IC50 (second compound 0.316 µM) was greater than 300 nM, the IC50 (second compound 1 µM) was greater than 300 nM and the viability, T/C (second compound 0.01 µM, first compound 0.000949 µM) was 106%. For the same compound, the viability, T/C (second compound 0.01 µM, first compound 0.003 µM) was 102%, the viability, T/C [31] was 92% and the viability, T/C [32] was 89.5%. For the same compound, the viability, T/C [33] was 88.7%, the viability, T/C [34] was 83.9% and the viability, T/C (second compound 0.0316 µM, first compound 0.000949 µM) was 97.9%. It also gave a viability, T/C (second compound 0.0316 µM, first compound 0.003 µM) of 85.7%, a viability, T/C [35] of 84.5% and a viability, T/C [36] of 97.8%. For the same compound, the viability, T/C [37] was 83.5%, the viability, T/C [38] was 76.8% and the viability, T/C (second compound 0.1 µM, first compound 0.000949 µM) was 81.7%. For the same compound, the viability, T/C (second compound 0.1 µM, first compound 0.003 µM) was 77.7%, the viability, T/C [39] was 71.6% and the viability, T/C [40] was 81.9%. The viability, T/C [41] was 92.1%, the viability, T/C [42] was 70.5% and the viability, T/C (second compound 0.316 µM, first compound 0.000949 µM) was 89.1%. For the same compound, the viability, T/C (second compound 0.316 µM, first compound 0.003 µM) was 86.8%, the viability, T/C [43] was 88% and the viability, T/C [44] was 90.9%. For the same compound, the viability, T/C [45] was 84.7%, the viability, T/C [46] was 81.4% and the viability, T/C (second compound 1 µM, first compound 0.000949 µM) was 82.3%. For the same compound, the viability, T/C (second compound 1 µM, first compound 0.003 µM) was 77.3%, the viability, T/C [47] was 54.4% and the viability, T/C [48] was 83%. For the same compound, the viability, T/C [49] was 86.4% and the viability, T/C [50] was 79.7%.

In the case of `CC(C)(C)c1cnc(CSc2cnc(NC(=O)C3CCNCC3)s2)o1` + CCN1CCN(Cc2ccc(Nc3ncc(F)c(-c4cc(F)c5nc(C)n(C(C)C)c5c4)n3)nc2)CC1, the IC50 (second compound 0.01 µM) is reported as 77 nM, the IC50 (second compound 0.0316 µM) is reported as 50.9 nM and the IC50 (second compound 0.1 µM) is reported as 51.7 nM. For the same compound, the IC50 (second compound 0.316 µM) was 39.4 nM, the IC50 (second compound 1 µM) was 31.9 nM and the viability, T/C [31] was 98.5%. The viability, T/C [32] was 86%, the viability, T/C [33] was 43% and the viability, T/C [34] was 0.52%. It also gave a viability, T/C (second compound 0.01 µM, first compound 0.949 µM) of 0.27%, a viability, T/C (second compound 0.01 µM, first compound 3 µM) of 0.36% and a viability, T/C [35] of 79.2%. The viability, T/C [36] was 67.3%, the viability, T/C [37] was 29.3% and the viability, T/C [38] was 0.36%. It also gave a viability, T/C (second compound 0.0316 µM, first compound 0.949 µM) of 0.13%, a viability, T/C (second compound 0.0316 µM, first compound 3 µM) of 0.27% and a viability, T/C [39] of 74.1%. It also gave a viability, T/C [40] of 71.5%, a viability, T/C [41] of 25.9% and a viability, T/C [42] of 0.39%. For the same compound, the viability, T/C (second compound 0.1 µM, first compound 0.949 µM) was 0.19%, the viability, T/C (second compound 0.1 µM, first compound 3 µM) was 0.29% and the viability, T/C [43] was 76.2%. The viability, T/C [44] was 62%, the viability, T/C [45] was 11.2% and the viability, T/C [46] was 0.34%. The viability, T/C (second compound 0.316 µM, first compound 0.949 µM) was 0.2%, the viability, T/C (second compound 0.316 µM, first compound 3 µM) was 0.3% and the viability, T/C [47] was 77.1%. It also gave a viability, T/C [48] of 48.5%, a viability, T/C [49] of 29.2% and a viability, T/C [50] of 0.4%. The viability, T/C (second compound 1 µM, first compound 0.949 µM) was 0.41% and the viability, T/C (second compound 1 µM, first compound 3 µM) was 0.31%.

For `Cn1nccc1Nc1nccc(-c2ccn(C(CO)c3ccc(Cl)c(F)c3)c(=O)c2)n1` (stereo not given) + CCN1CCN(Cc2ccc(Nc3ncc(F)c(-c4cc(F)c5nc(C)n(C(C)C)c5c4)n3)nc2)CC1, the IC50 (second compound 0.01 µM) was greater than 10000 nM, the IC50 (second compound 0.0316 µM) was 6420 nM and the IC50 (second compound 0.1 µM) was greater than 10000 nM. It also gave an IC50 (second compound 0.316 µM) of 7430 nM, an IC50 (second compound 1 µM) greater than 10000 nM and a viability, T/C [1] of 90.8%. The viability, T/C [2] was 77%, the viability, T/C [3] was 78.3% and the viability, T/C [4] was 67.7%. For the same compound, the viability, T/C [5] was 76.7%, the viability, T/C [6] was 68% and the viability, T/C [7] was 89.9%. It also gave a viability, T/C [8] of 77.5%, a viability, T/C [9] of 65% and a viability, T/C [10] of 63%. It also gave a viability, T/C [11] of 76.6%, a viability, T/C [12] of 34.8% and a viability, T/C [13] of 81.9%. The viability, T/C [14] was 73.4%, the viability, T/C [15] was 55.9% and the viability, T/C [16] was 58.9%. The viability, T/C [17] was 62.3%, the viability, T/C [18] was 46.6% and the viability, T/C [19] was 73%. The viability, T/C [20] was 77.2%, the viability, T/C [21] was 56.6% and the viability, T/C [22] was 69.2%. It also gave a viability, T/C [23] of 63.4%, a viability, T/C [24] of 45.4% and a viability, T/C [25] of 73.9%. It also gave a viability, T/C [26] of 64.2%, a viability, T/C [27] of 45.9% and a viability, T/C [28] of 61.6%. The viability, T/C [29] was 66.2% and the viability, T/C [30] was 51%.
